Earlier results on 8 molecules are cited in US20160317408A1, “KERATIN FIBRE DYEING METHOD” (ALFA PARF GROUP S.p.A., priority 2015, published 2016).

The conditions of data set [1]: value assigned from SCCS memorandum class; composition containing the dye.
For data set [2] the following is noted: SCCS Opinion 1509/13, Memorandum on hair dye chemical sensitisation.

Take `Nc1ccc(N(CCO)CCO)cc1` [N,N-bis(2-hydroxyethyl)-p-phenylenediamine]: in data set [1], the “individual sensitisation index value of the dye” value is 1. Moreover, in data set [2], the sensitising power classification entry is “Strong”.
As to `Nc1ncccc1O` [2-Amino-3-hydroxypyridine], in data set [2], the sensitising power classification result was “not classifiable”.
As to `Nc1ccc(OCCO)c(N)c1` [2,4-diaminophenoxyethanol], in data set [1], the “individual sensitisation index value of the dye” value is given as 2. In data set [2], the sensitising power classification entry is given as “Moderate”.
For `Oc1ccc(Cl)c(O)c1` [4-chlororesorcinol], the “individual sensitisation index value of the dye” value in data set [1] is recorded as 2. In data set [2], the sensitising power classification entry is “Moderate”.
With `Nc1ccc(N)cc1` [p-phenylenediamine], the “individual sensitisation index value of the dye” value in data set [1] is 0. The sensitising power classification entry in data set [2] was “Extreme”.
On to `Nc1ccc(NCCO)cc1` [hydroxyethyl-p-phenylenediamine], for which the sensitising power classification result in data set [2] is “Strong”.
With `Cc1c(O)cccc1O` [2-methylresorcinol], in data set [1], the “individual sensitisation index value of the dye” value is on record as 2. Further, the sensitising power classification result in data set [2] is recorded as “Moderate”.
For the molecule `Oc1cccc(O)c1` [resorcinol], in data set [2], the sensitising power classification result is given as “Strong”.
